Laboratory results from patent publication US6737383B1, “Herbicidal oxadiazolidines” (priority 1999, dated 2004).

Assays:
[1] = test system: rape; assay: Test B pre/postemergence rape; assay type: in vivo, Brassica napus
In short: (§1)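 Herbicidal effect was estimated by eye on a ten-point control scale after plants spent twelve to sixteen days in a greenhouse following soil or foliar treatment. Foliar sprays targeted plants at one to four leaves; all doses were formulated in a non-phytotoxic solvent with surfactant.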

[2] = test system: giant foxtail; assay: Test B pre/postemergence giant foxtail; assay type: in vivo, Setaria faberii
In short: as §1

[3] = test system: bamyardgrass; assay: Test B flood test barnyardgrass; assay type: in vivo, Echinochloa crus-galli
In short: (§2)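 Each value is a visual injury score relative to controls, with 10 meaning complete control and 0 no effect. Evaluation took place twelve to sixteen days after the 2-leaf-stage plants were treated and kept in the greenhouse.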

[4] = test system: morningglory; assay: Test B pre/postemergence morningglory; assay type: in vivo, Ipomoea hederacea
In short: as §1

[5] = test system: duck salad; assay: Test B flood test duck salad; assay type: in vivo, Heteranthera limosa
In short: as §2

[6] = test system: cocklebur; assay: Test B pre/postemergence cocklebur; assay type: in vivo, Xanthium strumarium
In short: as §1

[7] = test system: sugar beet; assay: Test B pre/postemergence sugar beet; assay type: in vivo, Beta vulgaris
In short: as §1

[8] = test system: wild oat; assay: Test B pre/postemergence wild oat; assay type: in vivo, Avena fatua
In short: as §1

[9] = test system: purple nutsedge; assay: Test B pre/postemergence purple nutsedge; assay type: in vivo, Cyperus rotundus
In short: as §1

[10] = test system: pigweed; assay: Test B pre/postemergence pigweed; assay type: in vivo, Amaranthus retroflexus
In short: as §1

[11] = test system: smallflower flatsedge; assay: Test B flood test smallflower flatsedge; assay type: in vivo, Cyperus difformis
In short: as §2

[12] = test system: rice; assay: Test B flood test rice; assay type: in vivo, Oryza sativa
In short: as §2

[13] = test system: corn; assay: Test B pre/postemergence corn; assay type: in vivo, Zea mays
In short: as §1

[14] = test system: wheat; assay: Test B pre/postemergence wheat; assay type: in vivo, Triticum aestivum
In short: as §1

[15] = test system: crabgrass; assay: Test B pre/postemergence crabgrass; assay type: in vivo, Digitaria sanguinalis
In short: as §1

[16] = test system: surinam grass; assay: Test B pre/postemergence surinam grass; assay type: in vivo, Brachiaria decumbens
In short: as §1

[17] = Postemergence, Rate 62 g/ha, scale 0 to 10, 0 is no effect, 10 is complete control
[18] = Postemergence, Rate 125 g/ha, scale of 0 to 10 where 0 is no effect and 10 is complete control
[19] = Postemergence, Rate 250 g/ha, scale of 0 to 10, 0 is no effect, 10 is complete control
[20] = Postemergence, Rate 500 g/ha, scale of 0 to 10 where 0 is no effect and 10 is complete control
[21] = Preemergence, Rate 62 g/ha, scale 0 to 10 (0 no effect, 10 complete control)
[22] = Preemergence, Rate 125 g/ha, scale of 0 to 10 where 0 is no effect and 10 is complete control
[23] = Preemergence, Rate 500 g/ha, scale of 0 to 10 where 0 is no effect and 10 is complete control
[24] = Rate 62 g/ha, flood test species, Pre-emergence, visual evaluation after twelve to sixteen days
[25] = Rate 125 g/ha, under heading Pre-emergence, flood test species, visual evaluation after twelve to sixteen days
[26] = Rate 250 g/ha, Pre-emergence (flood test species), scale 0 to 10, 0 is no effect, 10 is complete control
[27] = Rate 500 g/ha, Pre-emergence section of Table B, 0 to 10 scale (0 no effect, 10 complete control)

`CCC(C)n1c(=O)on(C(=O)N(c2ccccc2)C(C)C)c1=O` (stereo not shown) [Compound 612] was tested, and the “Plant response rating, Rape” value [1, 17] was 0, the “Plant response rating, Rape” value [1, 18] was 0 and the “Rape plant response rating” value [1, 19] was 0. For the same molecule, the “Plant response rating, Rape” value [1, 20] was 7, the “Rape plant response rating” value [1, 21] was 0 and the “Rape plant response rating” value [1, 22] was 3. For the same molecule, the “Plant response rating, Rape” value [1, 23] was 10, the “Plant response rating, Giant foxtail” value [2, 17] was 7 and the “Plant response rating, Giant foxtail” value [2, 18] was 9. The “Giant foxtail plant response rating” value [2, 19] was 9, the “Plant response rating, Giant foxtail” value [2, 20] was 9 and the “Giant foxtail plant response rating” value [2, 21] was 10. The “Giant foxtail plant response rating” value [2, 22] was 10, the “Plant response rating, Giant foxtail” value [2, 23] was 10 and the “Plant response rating, Barnyardgrass (0 to 10 scale, 0 is no effect, 10 is complete control)” value [3, 24] was 0. The “Barnyardgrass plant response rating (0 to 10 scale, 0 is no effect, 10 is complete control)” value [3, 25] was 0, the “Barnyardgrass plant response rating” value [3, 26] was 0 and the “Barnyardgrass plant response rating” value [3, 27] was 0. The “Plant response rating, Morningglory” value [4, 17] was 5, the “Plant response rating, Morningglory” value [4, 18] was 8 and the “Morningglory plant response rating” value [4, 19] was 8. For the same molecule, the “Plant response rating, Morningglory” value [4, 20] was 10, the “Morningglory plant response rating” value [4, 21] was 0 and the “Morningglory plant response rating” value [4, 22] was 0. For the same molecule, the “Plant response rating, Morningglory” value [4, 23] was 10, the “Plant response rating, Ducksalad (0 to 10 scale, 0 is no effect, 10 is complete control)” value [5, 24] was 0 and the “Ducksalad plant response rating (0 to 10 scale, 0 is no effect, 10 is complete control)” value [5, 25] was 0. For the same molecule, the “Ducksalad plant response rating” value [5, 26] was 0, the “Ducksalad plant response rating” value [5, 27] was 0 and the “Plant response rating, Cocklebur” value [6, 17] was 0. The “Plant response rating, Cocklebur” value [6, 18] was 0, the “Cocklebur plant response rating” value [6, 19] was 0 and the “Plant response rating, Cocklebur” value [6, 20] was 2. The “Cocklebur plant response rating” value [6, 21] was 0, the “Cocklebur plant response rating” value [6, 22] was 0 and the “Cocklebur plant response rating (0 to 10 scale)” value ([6]; Preemergence, Rate 250 g/ha) was 0. For the same molecule, the “Plant response rating, Cocklebur” value [6, 23] was 0, the “Plant response rating, Sugarbeets” value [7, 17] was 0 and the “Plant response rating, Sugarbeets” value [7, 18] was 0. For the same molecule, the “Sugarbeets plant response rating” value [7, 19] was 0, the “Plant response rating, Sugarbeets” value [7, 20] was 1 and the “Sugarbeets plant response rating” value [7, 21] was 3. The “Sugarbeets plant response rating” value [7, 22] was 5, the “Plant response rating, Sugarbeets” value [7, 23] was 7 and the “Plant response rating, Wild oats” value [8, 17] was 0. The “Plant response rating, Wild oats” value [8, 18] was 6, the “Wild oats plant response rating” value [8, 19] was 6 and the “Plant response rating, Wild oats” value [8, 20] was 9. The “Wild oats plant response rating” value [8, 21] was 5, the “Wild oats plant response rating” value [8, 22] was 9 and the “Plant response rating, Wild oats” value [8, 23] was 10. The “Plant response rating, Nutsedge” value [9, 17] was 0, the “Plant response rating, Nutsedge” value [9, 18] was 0 and the “Nutsedge plant response rating” value [9, 19] was 0. The “Plant response rating, Nutsedge” value [9, 20] was 2, the “Nutsedge plant response rating” value [9, 21] was 0 and the “Nutsedge plant response rating” value [9, 22] was 0. For the same molecule, the “Plant response rating, Nutsedge” value [9, 23] was 3, the “Plant response rating, Redroot pigweed” value [10, 17] was 0 and the “Plant response rating, Redroot pigweed” value [10, 18] was 2. For the same molecule, the “Redroot pigweed plant response rating” value [10, 19] was 4, the “Plant response rating, Redroot pigweed” value [10, 20] was 7 and the “Redroot pigweed plant response rating” value [10, 21] was 8. The “Redroot pigweed plant response rating” value [10, 22] was 10, the “Plant response rating, Redroot pigweed” value [10, 23] was 10 and the “Plant response rating, S. Flatsedge (0 to 10 scale, 0 is no effect, 10 is complete control)” value [11, 24] was 0. For the same molecule, the “S. Flatsedge plant response rating (0 to 10 scale, 0 is no effect, 10 is complete control)” value [11, 25] was 0, the “S. Flatsedge plant response rating” value [11, 26] was 0 and the “S. Flatsedge plant response rating” value [11, 27] was 0. For the same molecule, the “Plant response rating, Rice (0 to 10 scale, 0 is no effect, 10 is complete control)” value [12, 24] was 0, the “Rice plant response rating (0 to 10 scale, 0 is no effect, 10 is complete control)” value [12, 25] was 0 and the “Rice plant response rating” value [12, 26] was 0. For the same molecule, the “Rice plant response rating” value [12, 27] was 0, the “Plant response rating, Corn” value [13, 17] was 0 and the “Plant response rating, Corn” value [13, 18] was 0. For the same molecule, the “Corn plant response rating” value [13, 19] was 0, the “Plant response rating, Corn” value [13, 20] was 0 and the “Corn plant response rating” value [13, 21] was 0. The “Corn plant response rating” value [13, 22] was 3, the “Corn plant response rating (0 to 10 scale)” value ([13]; Preemergence, Rate 250 g/ha) was 8 and the “Plant response rating, Corn” value [13, 23] was 9. The “Plant response rating, Wheat” value [14, 17] was 0, the “Plant response rating, Wheat” value [14, 18] was 2 and the “Wheat plant response rating” value [14, 19] was 2. The “Plant response rating, Wheat” value [14, 20] was 5, the “Wheat plant response rating” value [14, 21] was 0 and the “Wheat plant response rating” value [14, 22] was 3. The “Plant response rating, Wheat” value [14, 23] was 8, the “Plant response rating, Crabgrass” value [15, 17] was 4 and the “Plant response rating, Crabgrass” value [15, 18] was 8. The “Crabgrass plant response rating” value [15, 19] was 9, the “Plant response rating, Crabgrass” value [15, 20] was 10 and the “Crabgrass plant response rating” value [15, 21] was 10. The “Crabgrass plant response rating” value [15, 22] was 10, the “Plant response rating, Crabgrass” value [15, 23] was 10 and the “Plant response rating, B. signalgrass” value [16, 17] was 1. The “Plant response rating, B. signalgrass” value [16, 18] was 3, the “B. signalgrass plant response rating” value [16, 19] was 7 and the “Plant response rating, B. signalgrass” value [16, 20] was 9. The “B. signalgrass plant response rating” value [16, 21] was 4, the “B. signalgrass plant response rating” value [16, 22] was 7 and the “B. signalgrass plant response rating (0 to 10 scale, 0 is no effect, 10 is complete control)” value ([16]; Preemergence, Rate 250 g/ha) was 10. For the same molecule, the “B. signalgrass plant response rating” value [16, 23] was 10.
